Measured values from PubChem BioAssay (NCI).
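GI50 = concentration required for 50% inhibition of growth. TGI is the concentration that stops growth completely.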

Experiments:
Test in all cases: NCI tumour cell line growth inhibition, 384-well format
786-0 renal = system: 786-0 renal
A498 renal = system: A498 renal
A549 NSCLC = system: A549 NSCLC
ACHN renal = system: ACHN renal
BT-549 breast = system: BT-549 breast
CAKI-1 renal = system: CAKI-1 renal
COLO 205 colon = system: COLO 205 colon
DU-145 prostate = system: DU-145 prostate
EKVX NSCLC = system: EKVX NSCLC
HCC-2998 colon = system: HCC-2998 colon
HCT-116 colon = system: HCT-116 colon
HCT-15 colon = system: HCT-15 colon
HL-60(TB) leukemia = system: HL-60(TB) leukemia
HOP-62 NSCLC = system: HOP-62 NSCLC
HOP-92 NSCLC = system: HOP-92 NSCLC
HS 578T breast = system: HS 578T breast
HT29 colon = system: HT29 colon
IGROV1 ovarian = system: IGROV1 ovarian
KM12 colon = system: KM12 colon
LOX IMVI melanoma = system: LOX IMVI melanoma
M14 melanoma = system: M14 melanoma
MALME-3M melanoma = system: MALME-3M melanoma
MCF7 breast = system: MCF7 breast
MDA-MB-231 breast = system: MDA-MB-231 breast
MDA-MB-435 melanoma = system: MDA-MB-435 melanoma
MDA-MB-468 breast = system: MDA-MB-468 breast
MOLT-4 leukemia = system: MOLT-4 leukemia
NCI-H226 lung = system: NCI-H226 lung
NCI-H23 lung = system: NCI-H23 lung
NCI-H322M lung = system: NCI-H322M lung
NCI-H460 NSCLC = system: NCI-H460 NSCLC
NCI-H522 lung = system: NCI-H522 lung
NCI/ADR-RES ovarian = system: NCI/ADR-RES ovarian
OVCAR-3 ovarian = system: OVCAR-3 ovarian
OVCAR-4 ovarian = system: OVCAR-4 ovarian
OVCAR-5 ovarian = system: OVCAR-5 ovarian
OVCAR-8 ovarian = system: OVCAR-8 ovarian
PC-3 prostate = system: PC-3 prostate
RPMI-8226 leukemia = system: RPMI-8226 leukemia
RXF 393 renal = system: RXF 393 renal
SF-268 CNS = system: SF-268 CNS
SF-295 CNS = system: SF-295 CNS
SF-539 CNS = system: SF-539 CNS
SK-MEL-28 melanoma = system: SK-MEL-28 melanoma
SK-MEL-5 melanoma = system: SK-MEL-5 melanoma
SK-OV-3 ovarian = system: SK-OV-3 ovarian
SN12C renal = system: SN12C renal
SNB-19 CNS = system: SNB-19 CNS
SNB-75 CNS = system: SNB-75 CNS
SR leukemia = system: SR leukemia
SW-620 colon = system: SW-620 colon
T-47D breast = system: T-47D breast
TK-10 renal = system: TK-10 renal
U251 glioblastoma = system: U251 glioblastoma
UACC-257 melanoma = system: UACC-257 melanoma
UACC-62 melanoma = system: UACC-62 melanoma
UO-31 renal = system: UO-31 renal

Structure (SMILES): Cc1ccc(C(=O)Nc2ccc(CN3CCN(C)CC3)c(C(F)(F)F)c2)cc1C#Cc1cnc2cccnn12
- GI50 (786-0 renal): 339 nM
- TGI (786-0 renal): 1060 nM
- GI50 (A498 renal): 390 nM
- TGI (A498 renal): 1310 nM
- GI50 (A549 NSCLC): 361 nM
- TGI (A549 NSCLC): 1250 nM
- GI50 (ACHN renal): 210 nM
- TGI (ACHN renal): 685 nM
- GI50 (BT-549 breast): 309 nM
- TGI (BT-549 breast): 1000 nM
- GI50 (CAKI-1 renal): 210 nM
- TGI (CAKI-1 renal): 504 nM
- GI50 (COLO 205 colon): 348 nM
- TGI (COLO 205 colon): 1440 nM
- GI50 (DU-145 prostate): 345 nM
- TGI (DU-145 prostate): 1190 nM
- GI50 (EKVX NSCLC): 574 nM
- TGI (EKVX NSCLC): 1780 nM
- GI50 (HCC-2998 colon): 500 nM
- TGI (HCC-2998 colon): 1290 nM
- GI50 (HCT-116 colon): 193 nM
- TGI (HCT-116 colon): 541 nM
- GI50 (HCT-15 colon): 265 nM
- TGI (HCT-15 colon): 1020 nM
- GI50 (HL-60(TB) leukemia): 163 nM
- TGI (HL-60(TB) leukemia): 320 nM
- GI50 (HOP-62 NSCLC): 403 nM
- TGI (HOP-62 NSCLC): 1380 nM
- GI50 (HOP-92 NSCLC): 249 nM
- TGI (HOP-92 NSCLC): 580 nM
- GI50 (HS 578T breast): 107 nM
- TGI (HS 578T breast): 290 nM
- GI50 (HT29 colon): 221 nM
- TGI (HT29 colon): 607 nM
- GI50 (IGROV1 ovarian): 180 nM
- TGI (IGROV1 ovarian): 558 nM
- GI50 (KM12 colon): 46 nM
- TGI (KM12 colon): 1380 nM
- GI50 (LOX IMVI melanoma): 153 nM
- TGI (LOX IMVI melanoma): 307 nM
- GI50 (M14 melanoma): 167 nM
- TGI (M14 melanoma): 573 nM
- GI50 (MALME-3M melanoma): 104 nM
- TGI (MALME-3M melanoma): 226 nM
- GI50 (MCF7 breast): 560 nM
- TGI (MCF7 breast): 1830 nM
- GI50 (MDA-MB-231 breast): 171 nM
- TGI (MDA-MB-231 breast): 399 nM
- GI50 (MDA-MB-435 melanoma): 425 nM
- TGI (MDA-MB-435 melanoma): 1340 nM
- GI50 (MDA-MB-468 breast): 563 nM
- TGI (MDA-MB-468 breast): 1580 nM
- GI50 (MOLT-4 leukemia): 203 nM
- TGI (MOLT-4 leukemia): 619 nM
- GI50 (NCI-H226 lung): 47.6 nM
- TGI (NCI-H226 lung): 240 nM
- GI50 (NCI-H23 lung): 246 nM
- TGI (NCI-H23 lung): 797 nM
- GI50 (NCI-H322M lung): 275 nM
- TGI (NCI-H322M lung): 692 nM
- GI50 (NCI-H460 NSCLC): 396 nM
- TGI (NCI-H460 NSCLC): 1510 nM
- GI50 (NCI-H522 lung): 147 nM
- TGI (NCI-H522 lung): 582 nM
- GI50 (NCI/ADR-RES ovarian): 315 nM
- TGI (NCI/ADR-RES ovarian): 1000 nM
- GI50 (OVCAR-3 ovarian): 374 nM
- TGI (OVCAR-3 ovarian): 1370 nM
- GI50 (OVCAR-4 ovarian): 538 nM
- TGI (OVCAR-4 ovarian): 1820 nM
- GI50 (OVCAR-5 ovarian): 516 nM
- TGI (OVCAR-5 ovarian): 1680 nM
- GI50 (OVCAR-8 ovarian): 344 nM
- TGI (OVCAR-8 ovarian): 1220 nM
- GI50 (PC-3 prostate): 872 nM
- TGI (PC-3 prostate): 2070 nM
- GI50 (RPMI-8226 leukemia): 288 nM
- TGI (RPMI-8226 leukemia): 760 nM
- GI50 (RXF 393 renal): 284 nM
- TGI (RXF 393 renal): 621 nM
- GI50 (SF-268 CNS): 222 nM
- TGI (SF-268 CNS): 844 nM
- GI50 (SF-295 CNS): 1080 nM
- TGI (SF-295 CNS): 2270 nM
- GI50 (SF-539 CNS): 109 nM
- TGI (SF-539 CNS): 245 nM
- GI50 (SK-MEL-28 melanoma): 362 nM
- TGI (SK-MEL-28 melanoma): 1270 nM
- GI50 (SK-MEL-5 melanoma): 170 nM
- TGI (SK-MEL-5 melanoma): 373 nM
- GI50 (SK-OV-3 ovarian): 297 nM
- TGI (SK-OV-3 ovarian): 1210 nM
- GI50 (SN12C renal): 324 nM
- TGI (SN12C renal): 1100 nM
- GI50 (SNB-19 CNS): 1270 nM
- TGI (SNB-19 CNS): 2560 nM
- GI50 (SNB-75 CNS): 217 nM
- TGI (SNB-75 CNS): 790 nM
- GI50 (SR leukemia): 521 nM
- TGI (SR leukemia): 801 nM
- GI50 (SW-620 colon): 399 nM
- TGI (SW-620 colon): 1480 nM
- GI50 (T-47D breast): 608 nM
- TGI (T-47D breast): 1810 nM
- GI50 (TK-10 renal): 737 nM
- TGI (TK-10 renal): 1970 nM
- GI50 (U251 glioblastoma): 492 nM
- TGI (U251 glioblastoma): 1610 nM
- GI50 (UACC-257 melanoma): 222 nM
- TGI (UACC-257 melanoma): 419 nM
- GI50 (UACC-62 melanoma): 144 nM
- TGI (UACC-62 melanoma): 745 nM
- GI50 (UO-31 renal): 392 nM
- TGI (UO-31 renal): 1150 nM
